Consider 21 compounds from patent US10898481B2 (priority 2018, dated 2021).

A word on the IC50: it is the concentration needed to halve the response being measured.

One assay concerns the target mA2a/CHO (Mus musculus (Mouse), UniProt Q60613). As to the kind of experiment: cAMP inhibition assay in mA2a/CHO cells, 10 μM adenosine.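 Note: compounds preincubated 30 min at 37 °C before the adenosine challenge, then 30 min further stimulation, readout after 60 min detection reagent incubation at room temperature in 384-well plates.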 Format: cell-based. To be noted: read-out: cAMP & FLIPR IC50 (nM) mA2a.
In another assay the target is hA2b/CHO (Homo sapiens (Human), UniProt P29275). As to the kind of experiment: cAMP inhibition assay in hA2b/CHO cells, 10 μM adenosine.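 Note: cells exposed to compound 30 min at 37 °C, then stimulated with adenosine a further 30 min, cAMP read after 60 min at room temperature.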 To be noted: read-out: cAMP & FLIPR IC50 (nM) hA2b. The format is cell-based.
In assay [1] the target is hADORA1/CHO (hA1 expressing) cells (Homo sapiens (Human), UniProt P30542). The assay is described as follows: cell-based. The conditions noted are these: FLIPR inhibition, 10 μM adenosine, read-out: cAMP & FLIPR IC50 (nM) hA1.
Method: hADORA1/CHO (hA1 expressing) cells (Genscript) were plated at 1×10^4 cells/well into 384-well polystyrene plates one day before starting the experiment. On the day of experiment, the supernatant was discard and replaced with 40 μL of dye (FLIPR calcium 5 Assay Kit) per well and the plates were incubated for 60 mins at 37° C. plus 5% CO2. Then testing compounds were added at different concentrations for FLIPR™ inhibition assay. After a 400s incubation with compound, 10 μM adenosine was added into the cells, and the signal was captured by FLIPR.
The target in a further assay is hA2a/CHO (Homo sapiens (Human), UniProt P29274). As to the kind of experiment: cAMP inhibition assay in hA2a/CHO cells, 10 μM adenosine.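 Note: compounds added to cells 30 min ahead of adenosine, then a further 30 min at 37 °C with adenosine before cAMP detection.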 The format is cell-based. To be noted: read-out: cAMP & FLIPR IC50 (nM) hA2a.
Sequence of hA2a/CHO (P29274 whole entry): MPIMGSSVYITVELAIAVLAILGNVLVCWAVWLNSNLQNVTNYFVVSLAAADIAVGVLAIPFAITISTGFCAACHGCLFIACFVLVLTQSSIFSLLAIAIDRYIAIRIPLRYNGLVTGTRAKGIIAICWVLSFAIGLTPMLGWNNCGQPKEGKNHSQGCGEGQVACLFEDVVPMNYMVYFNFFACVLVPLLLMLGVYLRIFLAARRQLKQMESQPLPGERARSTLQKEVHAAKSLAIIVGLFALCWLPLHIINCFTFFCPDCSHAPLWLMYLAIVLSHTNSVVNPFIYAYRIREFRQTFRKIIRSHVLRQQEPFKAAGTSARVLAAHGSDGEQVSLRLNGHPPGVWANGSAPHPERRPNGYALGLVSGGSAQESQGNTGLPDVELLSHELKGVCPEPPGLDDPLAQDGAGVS

Sequence of mA2a/CHO (Q60613 whole entry): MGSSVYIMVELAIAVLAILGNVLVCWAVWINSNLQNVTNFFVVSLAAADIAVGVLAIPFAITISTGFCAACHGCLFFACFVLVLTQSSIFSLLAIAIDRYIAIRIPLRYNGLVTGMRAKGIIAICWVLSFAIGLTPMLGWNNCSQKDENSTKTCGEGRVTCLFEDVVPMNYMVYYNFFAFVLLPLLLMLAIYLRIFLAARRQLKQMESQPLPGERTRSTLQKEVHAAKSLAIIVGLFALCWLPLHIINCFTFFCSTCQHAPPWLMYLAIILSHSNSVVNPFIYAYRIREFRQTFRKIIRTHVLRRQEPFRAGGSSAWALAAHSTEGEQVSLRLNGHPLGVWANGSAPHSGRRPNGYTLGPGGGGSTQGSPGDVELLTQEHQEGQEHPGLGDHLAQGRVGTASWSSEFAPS
Sequence of hA2b/CHO (P29275 whole entry): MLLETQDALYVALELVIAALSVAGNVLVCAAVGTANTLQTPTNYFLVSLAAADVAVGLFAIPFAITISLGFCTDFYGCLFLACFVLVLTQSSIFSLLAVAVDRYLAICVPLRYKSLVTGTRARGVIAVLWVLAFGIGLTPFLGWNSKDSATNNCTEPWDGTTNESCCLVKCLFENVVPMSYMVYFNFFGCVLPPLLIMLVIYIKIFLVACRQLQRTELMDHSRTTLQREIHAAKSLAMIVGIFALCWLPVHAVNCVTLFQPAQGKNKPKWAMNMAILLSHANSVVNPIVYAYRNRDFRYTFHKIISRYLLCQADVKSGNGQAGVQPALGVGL
Sequence of hADORA1/CHO (hA1 expressing) cells (P30542 whole entry): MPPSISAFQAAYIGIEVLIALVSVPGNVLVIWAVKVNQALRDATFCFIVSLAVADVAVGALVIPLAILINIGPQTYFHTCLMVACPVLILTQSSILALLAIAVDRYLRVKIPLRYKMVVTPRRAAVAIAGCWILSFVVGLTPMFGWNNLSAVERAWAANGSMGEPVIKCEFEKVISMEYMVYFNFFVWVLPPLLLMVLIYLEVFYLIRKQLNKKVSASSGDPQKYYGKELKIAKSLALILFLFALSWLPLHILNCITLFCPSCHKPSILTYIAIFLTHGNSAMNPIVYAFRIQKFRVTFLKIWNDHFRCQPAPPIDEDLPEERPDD
Method for hA2a/CHO: (§1) hA2a/CHO, hA2b/CHO, hA3/CHO and mA2a/CHO (Genscript) were plated at 5×10^3 cells/well into 384-well polystyrene plates at the day of experiment. Compounds were pre-incubated with cells for 30 min at 37° C., 5% CO2. Then 10 μM adenosine was added to the cells and incubated for 30 min at 37° C., 5% CO2. Detection reagent (CISBIO) was added and the plates were incubated for 60 min at room temperature. The signal was captured by Envision.
Method for hA2b/CHO: as §1
Method for mA2a/CHO: as §1

Consider `CN1CCCC1CNC(=O)c1nc(-c2ccc3ncc(C(F)(F)F)n3c2)c(-c2ncco2)nc1N` (single isomer, unassigned) [Cmpd. 202, 3-amino-N-[[1-methylpyrrolidin-2-yl]methyl]-5-(1,3-oxazol-2-yl)-6-[3-(trifluoromethyl)imidazo[1,2-a]pyridin-6-yl]pyrazine-2-carboxamide], for which the IC50 turned out to be 105 nM on mA2a/CHO, 1130 nM at hA2b/CHO, 6920 nM in assay [1] and 17 nM at hA2a/CHO.
In the case of `Cn1cnc2ccc(-c3nc(C(=O)NCc4ncccc4NCCO)c(N)nc3-c3ccc(F)cc3)cc21` [Example 117, 3-amino-5-(4-fluorophenyl)-N-([3-[(2-hydroxyethyl)amino]pyridin-2-yl]methyl)-6-(1-methyl-1H-1,3-benzodiazol-6-yl)pyrazine-2-carboxamide], the IC50 at mA2a/CHO is 2.6 nM; on hA2b/CHO, 146 nM; in assay [1], 64 nM; at hA2a/CHO, 0.7 nM.
Turning to `Cc1cnc2ccc(-c3nc(C(=O)NCc4cccc(N[C@H]5C[C@H](N(C)C)C5)n4)c(N)nc3-c3ncco3)cn12` [Cmpd. 227, Trans-3-amino-6-[3-methyl-imidazo[1,2-a]pyridin-6-yl]-5-(1,3-oxazol-2-yl)-N-[(6-[[3-(dimethylamino)cyclobutyl]amino]pyridin-2-yl)methyl]pyrazine-2-carboxamide], the IC50 on mA2a/CHO was found to be 24 nM; at hA2b/CHO it was 99 nM; in assay [1], 781 nM; on hA2a/CHO it was 4.4 nM.
With `Cc1cnc2ccc(-c3nc(CNC(=O)[C@@H]4CCCN4C)c(N)nc3-c3ccc(F)cc3)cn12` [Example 156, (2S)—N-[[3-amino-5-(4-fluorophenyl)-6-[3-methylimidazo[1,2-a]pyridin-6-yl]pyrazin-2-yl]methyl]-1-methylpyrrolidine-2-carboxamide], the IC50 was found to be 41 nM at mA2a/CHO, 1200 nM at hA2b/CHO, 83 nM in assay [1] and 4.4 nM on hA2a/CHO.
`Cn1cc(-c2nc(C(=O)NCc3c(F)cccc3Cl)c(N)nc2-c2ncco2)ccc1=O` [Example 110, 3-amino-N-(2-chloro-6-fluorobenzyl)-6-(1-methyl-6-oxo-1,6-dihydropyridin-3-yl)-5-(oxazol-2-yl)pyrazine-2-carboxamide]: the IC50 on mA2a/CHO is 1 nM; on hA2b/CHO it was 11 nM; in assay [1], 31 nM; at hA2a/CHO it was 0.7 nM.
In the case of `Cc1cc(-c2nc(C(=O)NCc3c(F)cccc3F)c(N)nc2-c2ncco2)cc(C)n1` [Example 5, 3-amino-N-(2,6-difluorobenzyl)-6-(2,6-dimethylpyridin-4-yl)-5-(oxazol-2-yl)pyrazine-2-carboxamide], the IC50 at mA2a/CHO is 219 nM; at hA2b/CHO, at least 10000 nM; in assay [1], 10000 nM; at hA2a/CHO it was 28 nM.
As to `CCNC(=O)c1nc(-c2ccc3ncc(C)n3c2)c(-c2ncco2)nc1N` [Example 132, 3-amino-N-ethyl-6-(3-methylimidazo [1,2-a]pyridin-6-yl)-5-(oxazol-2-yl) pyrazine-2-carboxamide], the IC50 on mA2a/CHO was determined as 65 nM; at hA2b/CHO, 258 nM; in assay [1], 10000 nM; at hA2a/CHO, 13 nM.
For `CCc1ccccc1CNC(=O)c1nc(-c2cc(C)nc(C)c2)c(-c2ccc(F)cc2)nc1N` [Example 84, 3-amino-6-(2,6-dimethylpyridin-4-yl)-N-(2-ethylbenzyl)-5-(4-fluorophenyl) pyrazine-2-carboxamide], in that order: 238 nM, at least 10000 nM, 1200 nM and 18 nM.
For `CN1CCC[C@@H]1CNC(=O)c1nc(-c2ccc3ncn(C)c3c2)c(-n2nccn2)nc1N` [Example 131, (R)-3-amino-6-(1-methyl-1H-benzo[d]imidazol-6-yl)-N-((1-methylpyrrolidin-2-yl)methyl)-5-(2H-1,2,3-triazol-2-yl)pyrazine-2-carboxamide], in that order: 2700 nM, at least 10000 nM, 10000 nM and 332 nM.
Take `COc1ccccc1CNC(=O)c1nc(-c2ccc(=O)n(C(F)F)c2)c(-c2ccc(F)cc2)nc1N` [Example 76, 3-amino-6-(1-(difluoromethyl)-6-oxo-1,6-dihydropyridin-3-yl)-5-(4-fluorophenyl)-N-(2-methoxybenzyl) pyrazine-2-carboxamide]: the half-inhibitory concentration (IC50) on mA2a/CHO amounted to 22 nM; on hA2b/CHO, 76 nM; in assay [1], 68 nM; at hA2a/CHO it was 4.2 nM.
Take `Cc1cnc2ccc(-c3nc(C(=O)NC[C@H]4CCCO4)c(N)nc3-n3nccn3)cn12` [Cmpd. 229, 3-amino-6-[3-methylimidazo[1,2-a]pyridin-6-yl]-N-[[(2R)-oxolan-2-yl]methyl]-5-(2H-1,2,3-triazol-2-yl)pyrazine-2-carboxamide]: the IC50 was 19 nM on mA2a/CHO, 157 nM at hA2b/CHO, 1650 nM in assay [1] and 2.4 nM on hA2a/CHO.
`CNc1cccnc1CNC(=O)c1nc(-c2ccc(=O)n(C)c2)c(-c2ncco2)nc1N` [Example 46, 3-amino-6-(1-methyl-6-oxo-1,6-dihydropyridin-3-yl)-N-((3-(methylamino)pyridin-2-yl)methyl)-5-(oxazol-2-yl)pyrazine-2-carboxamide]: the IC50 was determined as 125 nM on mA2a/CHO, 1620 nM on hA2b/CHO, 488 nM in assay [1] and 102 nM at hA2a/CHO.
As for `COc1ccccc1CNC(=O)c1nc(-c2cc(C)nc(C)c2)c(-n2nccc2C)nc1N` [Example 74, 3-amino-6-(2,6-dimethylpyridin-4-yl)-N-(2-methoxybenzyl)-5-(5-methyl-1H-pyrazol-1-yl)pyrazine-2-carboxamide], the IC50 at mA2a/CHO is 1950 nM; at hA2b/CHO, at least 10000 nM; in assay [1], 216 nM; at hA2a/CHO, 44 nM.
For `Cc1cnc2ccc(-c3nc(C(=O)NCC4CN(C)CCO4)c(N)nc3-c3ccc(F)cc3)cn12` (single isomer, unassigned; isomer 2) [Example 250, 3-amino-5-(4-fluorophenyl)-6-(3-methylimidazo[1,2-a]pyridin-6-yl)-N-((4-methylmorpholin-2-yl)methyl) pyrazine-2-carboxamide (isomer 2)], in that order: 31 nM, 212 nM, 36 nM and 5 nM.
For `Cn1cc(-c2nc(C(=O)NCc3c(F)cccc3P(C)(C)=O)c(N)nc2-c2ncco2)ccc1=O` [Example 97, 3-amino-N-(2-(dimethylphosphoryl)-6-fluorobenzyl)-6-(1-methyl-6-oxo-1,6-dihydropyridin-3-yl)-5-(oxazol-2-yl) pyrazine-2-carboxamide], in that order: 40 nM, 4880 nM, 482 nM and 50 nM.
Regarding `Cc1scnc1CNC(=O)c1nc(-c2ccc3nccn3c2)c(-c2ncco2)nc1N` [Example 94, 3-amino-6-[imidazo[1,2-a]pyridin-6-yl]-N-[(5-methyl-1,3-thiazol-4-yl)methyl]-5-(1,3-oxazol-2-yl)pyrazine-2-carboxamide], the IC50 is 34 nM at mA2a/CHO, 76 nM on hA2b/CHO, 2960 nM in assay [1] and 3.9 nM on hA2a/CHO.
On to `Cn1cc(-c2nc(C(=O)NCc3c(F)cccc3N3CCOCC3)c(N)nc2-c2ncco2)ccc1=O` [Example 39, 3-amino-N-[[2-fluoro-6-(morpholin-4-yl)phenyl]methyl]-6-(1-methyl-6-oxo-1,6-dihydropyridin-3-yl)-5-(1,3-oxazol-2-yl)pyrazine-2-carboxamide], for which the IC50 at mA2a/CHO stood at 3.3 nM; at hA2b/CHO, 2120 nM; in assay [1] it was 32 nM; on hA2a/CHO, 7.8 nM.
On to `Cc1cnc2ccc(-c3nc(C(=O)NCCS(C)(=O)=O)c(N)nc3-c3ccc(F)cc3)cn12` [Example 150, 3-amino-5-(4-fluorophenyl)-6-(3-methylimidazo[1,2-a]pyridin-6-yl)-N-(2-(methylsulfonyl)ethyl)pyrazine-2-carboxamide], for which the half-maximal inhibitory concentration (IC50) was determined as 6.5 nM at mA2a/CHO, 108 nM on hA2b/CHO, 26 nM in assay [1] and 3.4 nM on hA2a/CHO.
In the case of `Nc1nc(-c2ncco2)c(-c2ccc(=O)n(C3CC3)c2)nc1C(=O)NCc1c(F)cccc1F` [Example 38, 3-amino-6-(1-cyclopropyl-6-oxo-1,6-dihydropyridin-3-yl)-N-[(2,6-difluorophenyl)methyl]-5-(1,3-oxazol-2-yl)pyrazine-2-carboxamide], the IC50 on mA2a/CHO came to 5.3 nM; at hA2b/CHO it was 59 nM; in assay [1], 61 nM; at hA2a/CHO it was 2.4 nM.
For the compound `Cc1cnc2ccc(-c3nc(C(=O)NCC4CN(C)CCO4)c(N)nc3-c3ccc(F)cc3)cn12` (single isomer, unassigned; isomer 1) [Example 246, 3-amino-5-(4-fluorophenyl)-6-(3-methylimidazo[1,2-a]pyridin-6-yl)-N-((4-methylmorpholin-2-yl)methyl) pyrazine-2-carboxamide (isomer 1)], the IC50 stood at 67 nM at mA2a/CHO, 1100 nM at hA2b/CHO, 44 nM in assay [1] and 17 nM at hA2a/CHO.
On to `Cc1cnc2ccc(-c3nc(C(=O)NC[C@@H](C)O)c(N)nc3-c3ncco3)cn12` [Example 145, (R)-3-amino-N-(2-hydroxypropyl)-6-(3-methylimidazo[1,2-a]pyridin-6-yl)-5-(oxazol-2-yl)pyrazine-2-carboxamide], for which the IC50 on mA2a/CHO turned out to be 205 nM; at hA2b/CHO, 789 nM; in assay [1] it was 10000 nM; on hA2a/CHO, 32 nM.
